The values below come from US9433663B2, “Mobilization of hematopoietic stem cells” (Children's Hospital Medical Center, priority 2008, dated 2016).

One series concerns the target Cdc42 (Mus musculus, UniProt P60766). As to the kind of experiment: Rho GTPase effector pull-down in murine LDBM cells, Cdc42. In kind it is cell-based. More on the design: endogenous in cells; host or cells: murine low density bone marrow (LDBM) cells. Here is the method: To analyze the effects of CASIN on the formation of active GTP-bound Cdc42, RhoA, and Rac1, effector pulldown assays were carried out as described previously. Cdc42GAP^−/− MEF, LDBM, CD34^+ hCB cells were treated with CASIN at doses of 5-20 μM in parallel with vehicle control for 2 hrs after overnight starvation, and stimulated with cytokines subsequently. And then cells were lysed in a buffer containing 20 mM Tris-HCL (pH 7.6), 100 mM NaCl, 1% Triton X-100, 10 mM MgCl2, 2 mM NaF, and Protease inhibitor cocktail (Roche Diagnostics). Lysates were incubated with GST-P21-binding domain of PAK1 for RAC1-GTP and Cdc42-GTP, and GST-RBD domain of Rhotekin for RhoA-GTP respectively. Both bound- and unbound-form of Rho GTPases were probed by immunoblotting with antibodies specific for Rac1 (BD biosciences), Cdc42 (BD biosciences), and RhoA (cell signaling).

In a further series the test system is leukemia cells. Briefly: apoptosis of leukemia cells by FACS analysis. The series is classed as cell-based, human. The note with it: after 24 hrs' CASIN pre-treatment, FIG. 5D. In general terms: In flow cytometry, cells or beads pass a laser one at a time.
The next series deals with LT-HSC, ST-HSC, and MPP. Briefly: Example 8 kinetics of BM HSC number, cell cycle and reconstitution. In kind it is in vivo, C57Bl/6 mice. Here is the method: To monitor the kinetics of CASIN effects on cell number, proliferation, and cell cycle change of HSCs, four time points post-CASIN-administration are focused on in this part. The determination of the four time points depends on the PD analysis to reflect the kinetics of HSCs from relatively quiescent state through proliferative state back to the quiescent state. In this study, the following time points are used: 0, 24, 48, and 96 hours postdosing as an example. Again C57Bl/6 mice are used here. Three subpopulations of HSC/P are investigated and phenotypically defined by flow cytometry: (1) Long-term reconstituting Flk-2-HSC (LT-HSC) subset (Lin−/c-Kit+/Sca-1+/Thy1.1int/FLK2−) capable of extensive self-renewal; (2) Short-term reconstituting Flk-2int HSC(ST-HSCF) subset (Lin−/c-K1t+/Sca-1+/Thy1.1int/FLK2int), which self-renews for a limited interval; (3) Nonself-renewing Flk-2+ multipotent progenitor (MPPF) subset (Lin−/c-K1t+/Sca-1+/Thy1.1int/FLK2+).
Harvest of PB and BM: At 0, 24, 48, and 96 h post CASIN injection, the mice are sacrificed, and then the marrow is flushed from the femurs and tibias of C57Bl/6 mice and the blood cells are collected by cardiac incision.
Change of the frequency and total number of subpopulations of HSC/Ps in BM and PB: Both PB and BM cells are further prepared for flow cytometry analysis. Then, the frequencies of LT-HSC, ST-HSC, and MPP along the four time points are determined using the combinations of cell surface markers mentioned above phenotypically by flow cytometry. The absolute numbers of different subpopulations of HSC in BM and PB are calculated according to the total cellularity of BM and PB of the mice.
Cell cycle analysis: To characterize the cell cycle status of subpopulations of HSCs following treatment with CASIN, double-sorted cells are stained with Hoechst 33342 and Pyronin Y (H/PY), allowing simultaneous assessment of the fraction of cells with more than 2n DNA content (Hoechst 33342), as well as relative levels of total double-stranded RNA (PY). […]

The next series addresses T1, Rac1 (Homo sapiens, UniProt P63000).
T1 construct: endogenous in cells; host or cells: human CD34+ umbilical cord blood cells (HCB)
As to the kind of experiment: Rho GTPase effector pulldown in human CD34+ umbilical cord blood cells, Rac1. In kind it is cell-based. The note with it: human CD34^+ HCBs. As for the experimental part:
To begin to study potential utility of CASIN in human hematopoietic stem cell mobilization, a series of cellular assays were carried out to determine the effects on human CD34^+ umbilical cord blood cells (HCBs). […] The effects of CASIN on human hematopoietic cell mobilization was therefore tested using a well established preclinical in vivo model (NOD/SCID-Hcb) of human hematopoietic function, where fresh CD34^+ hCB cells were transplanted into sub-lethally irradiated NOD/SCIDs by intrafemoral injection, and repopulated and maintained human hematopoietic reconstitution in the bone marrow of NOD/SCID recipient mice (FIG. 9b, FIG. 11) (Larochelle, A. et al. Nat Med 2, 1329-1337 (1996); Bhatia, M., et al. Proc Natl Acad Sci USA 94, 5320-5325 (1997)). Intravenous injections of CASIN were applied when human cells were well engrafted in the NOD/SCID recipients.
To analyze the effects of CASIN on the formation of active GTP-bound Cdc42, RhoA, and Rac1, effector pulldown assays were carried out as described previously. Cdc42GAP^−/− MEF, LDBM, CD34^+ hCB cells were treated with CASIN at doses of 5-20 μM in parallel with vehicle control for 2 hrs after overnight starvation, and stimulated with cytokines subsequently. […]

For the next series, the system named is LDBM cells. Briefly: proliferation (CFU) and toxicity in Cdc42+/+ and Cdc42−/− LDBM progenitors. The series is classed as cell-based, murine. The source says:
To shed light on potential roles of CASIN in HSPC mobilization, the effects of CASIN on Cdc42-related cellular functions was studied, including adhesion, migration, and F-actin polymerization of progenitor cells in 32D myeloid progenitors. […] SDF-1α stimulation causes a reorganization of F-actin into a cortical ring around the cells. […] Thirdly, to gain further insight into cellular specificity and efficacy of CASIN, and also to rule out possible toxic effects by CASIN, Cdc42-involved BM progenitor cell functions were examined, including proliferation, adhesion, migration, and F-actin polymerization, in Cdc42^+/+ cells in parallel with Cdc42^−/− cells. In line with additional studies in a Cdc42 conditional knockout mouse model as described herein, Cdc42^−/− LDBM cells have increased CFU-forming progenitors compared to those of Cdc42^+/+.

Chain of Cdc42 (P60766 whole entry, the tested form may be a part): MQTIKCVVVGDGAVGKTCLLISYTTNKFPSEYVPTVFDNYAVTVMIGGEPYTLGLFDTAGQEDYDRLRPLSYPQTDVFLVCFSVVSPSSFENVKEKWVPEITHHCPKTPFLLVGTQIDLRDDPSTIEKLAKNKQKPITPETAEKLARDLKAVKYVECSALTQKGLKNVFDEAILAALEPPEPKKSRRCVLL

In the case of `OCCNC1CCCc2c1[nH]c1ccc(-c3ccccc3)cc21` (centres unmarked) [CASIN], the Cdc42 activity result at Cdc42 (pre-treatment at 5 and 10 μM, mixed cytokine stimulation) is “dose-dependent inhibition”. In addition, the “reversibility of Cdc42 activity inhibition” value at Cdc42 (removal of CASIN by a pre-wash) is reported as “reversible”. For the same compound, the “apoptosis of leukemia cells” value in the series on leukemia cells is listed as “precipitated leukemia cells to apoptosis”. For the same compound, the “reconstitution frequency of BM LT-HSCs” value in the series on LT-HSC, ST-HSC, and MPP (48 hours post injection, compared to non-treated mice) was “significantly decreases”. Also, in the series on LT-HSC, ST-HSC, and MPP (after CASIN administration), the “cell cycle status of HSC/P subpopulations (H/PY staining)” value is listed as “decreased frequencies of cells in G0 phase”. In the series on LT-HSC, ST-HSC, and MPP (post-CASIN administration), the “numbers and frequencies of LT-HSC, ST-HSC, and MPP population in BM” value is listed as “increase dramatically up to 48 h post-CASIN administration”. Also, the Rac1 activity entry on Rac1 was “without affecting”. Besides, the “proliferation of WT progenitors” value in the series with LDBM cells (Cdc42^+/+ LDBM cells, FIG. 2d) is “did not affect”. For the same compound, in the series with LDBM cells (Cdc42^−/− LDBM cells, FIG. 2d), the “side effect on the KO cells” value is on record as “nor showed any side effect”. Besides, in the series on LDBM cells (as compared with the Cdc42 conditional knockout mouse), the “myeloproliferative disorders (MPDs) or hyperactivation” value is given as “did not cause”. The “toxic effect in WT or Cdc42 deficient HSPCs” value in the series with LDBM cells (dose range of 5-10 μM) is “without a detectable toxic effect”.
